Assay results as given in paper PMC11406361, “Several orphan solute carriers functionally identified as organic cation transporters: Substrates specificity compared with known cation transporters” (The Journal of Biological Chemistry, 2024).

Key:
SLC35F4 = target: T1, SLC35F4 (Homo sapiens, UniProt A4IF30); assay: Uptake ratio screen, SLC35F4-overexpressing HEK293 over empty vector cells; assay type: cell-based; set-up: by amplifying the entire gene-of-interest within the HEK293 genome via a long-range PCR; conditions: 2.5 μM, 2 min
T1 sequence (A4IF30 1-521): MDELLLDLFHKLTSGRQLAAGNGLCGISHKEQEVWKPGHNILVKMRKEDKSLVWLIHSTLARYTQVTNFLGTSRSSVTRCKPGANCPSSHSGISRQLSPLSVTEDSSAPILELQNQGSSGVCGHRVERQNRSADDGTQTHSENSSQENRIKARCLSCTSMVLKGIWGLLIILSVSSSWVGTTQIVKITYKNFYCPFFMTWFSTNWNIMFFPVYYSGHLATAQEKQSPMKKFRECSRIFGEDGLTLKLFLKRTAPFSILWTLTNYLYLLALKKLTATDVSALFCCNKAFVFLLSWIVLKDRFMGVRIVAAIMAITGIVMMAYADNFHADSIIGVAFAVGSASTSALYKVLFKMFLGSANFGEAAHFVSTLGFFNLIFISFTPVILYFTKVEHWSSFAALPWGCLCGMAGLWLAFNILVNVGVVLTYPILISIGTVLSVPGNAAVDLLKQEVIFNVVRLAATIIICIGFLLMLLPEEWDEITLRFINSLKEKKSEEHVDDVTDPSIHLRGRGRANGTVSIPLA
Procedure: (§1) Typically discussed substrates of the proton organic-cation antiporter ([14]) are highlighted in dark green in Figure 1.
(§2) In preparation for transport experiments, 24-well plates were pre-coated with poly-D-lysine (Sigma-Aldrich) and 300,000 cells were plated per well and incubated for 48 h. Firstly, the 24-well plate was placed on a heating plate at 37 °C, and the cells were washed with 37 °C HBSS^+ buffer (Hank’s balanced salt solution supplemented with 10 mM Hepes and adjusted to pH 7.4; Thermo Fisher Scientific). The substance-of-interest, which was diluted in 37 °C HBSS^+ to a desired concentration, was added to the cells for exactly 2 min. […] The uptake was stopped with ice-cold HBSS^+, and the 24-well plate was removed from the heating plate. The cells were washed twice with the cold HBSS^+ before they were lysed for 15 min with 80% (v/v) acetonitrile containing the respective internal standard for mass spectrometry. For variations in seeded cell numbers between the cell lines, several wells were lysed in RIPA buffer and used for total protein quantification using a bicinchoninic assay ([74]) and bovine serum albumin as calibration.
(§3) The intracellular drug concentrations after transport experiments were analyzed by high-performance liquid chromatography coupled to tandem mass spectrometry analysis. The HPLC consisted of a Shimadzu Nexera HPLC System with a SIL-30AC autosampler, a LC-30AD pump, a CTO-20AC column oven, and a CBM-20A controller (Shimadzu). The reverse-phase chromatography of compounds was accomplished with a Brownlee SPP RP-Amide column with 4.6 × 100 mm inner dimensions, a particle size of 2.7 μm, and a preceding Phenomenex C-18 guard column. The mobile phase was composed of an organic additive with acetonitrile:methanol 6:1 (v/v) in total concentrations between 3% and 50% (v/v) and 0.1% (v/v) formic acid in the aqueous component of the eluent. During separation, the column oven was held at 40 °C and the mobile phase was maintained at a flow rate of 300 or 400 μl/min. After separation, the detection of substances was performed with an API 4000 tandem mass spectrometer (AB SCIEX, https://sciex.com/support/software-support/software-downloads), followed by quantification of results with the Analyst software (AB SCIEX, version 1.6.2). The composition of chromatographic conditions, as well as detailed mass spectrometric detection parameters, are listed in Table S5.
(§4) Transport-mediated net uptake was determined as fold-increase of transporter-overexpressing cells over empty vector–transfected control cells.

SLC35E1 = SLC35E1 (Homo sapiens, UniProt Q96K37)
SLC35F5 = target: T2, SLC35F5 (Homo sapiens, UniProt Q8WV83); assay: Uptake ratio screen, SLC35F5-overexpressing HEK293 over empty vector cells; assay type: cell-based; set-up: by amplifying the entire gene-of-interest within the HEK293 genome via a long-range PCR; conditions: 2.5 μM, 2 min
T2 sequence (Q8WV83 1-523): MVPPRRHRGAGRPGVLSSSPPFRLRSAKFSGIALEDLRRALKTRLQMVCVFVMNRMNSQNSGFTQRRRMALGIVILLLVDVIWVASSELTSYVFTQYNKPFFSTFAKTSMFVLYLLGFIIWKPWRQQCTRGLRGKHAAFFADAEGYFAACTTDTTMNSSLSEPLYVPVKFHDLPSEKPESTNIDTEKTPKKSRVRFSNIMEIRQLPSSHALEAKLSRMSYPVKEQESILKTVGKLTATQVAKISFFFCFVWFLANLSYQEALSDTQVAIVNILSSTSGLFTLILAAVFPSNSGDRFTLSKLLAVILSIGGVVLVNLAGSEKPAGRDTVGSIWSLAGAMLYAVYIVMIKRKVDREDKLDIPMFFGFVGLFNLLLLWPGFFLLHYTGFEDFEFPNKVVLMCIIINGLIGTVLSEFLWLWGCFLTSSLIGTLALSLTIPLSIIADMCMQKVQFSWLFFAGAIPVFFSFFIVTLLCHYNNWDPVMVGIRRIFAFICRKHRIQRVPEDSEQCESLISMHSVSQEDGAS
Procedure: as §1, §2, §3, §4

SLC5A7 = conditions: read-out: KM of choline transport by SLC5A7; high-affinity choline transporter; ref [46]; cited from earlier work
SLC35E4 [1] = target: T3, SLC35E4 (Homo sapiens, UniProt Q6ICL7)
T3 sequence (Q6ICL7 1-350): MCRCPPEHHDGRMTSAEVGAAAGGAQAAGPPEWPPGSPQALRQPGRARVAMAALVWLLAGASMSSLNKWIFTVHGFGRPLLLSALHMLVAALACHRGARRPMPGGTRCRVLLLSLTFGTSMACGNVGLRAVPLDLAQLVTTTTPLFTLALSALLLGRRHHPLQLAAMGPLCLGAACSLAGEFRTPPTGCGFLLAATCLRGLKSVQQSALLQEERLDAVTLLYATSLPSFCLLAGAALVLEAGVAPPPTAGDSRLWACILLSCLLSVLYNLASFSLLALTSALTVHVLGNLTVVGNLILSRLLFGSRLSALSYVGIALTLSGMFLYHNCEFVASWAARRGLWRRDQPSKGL

SLC44A1 = SLC44A1 (Homo sapiens, UniProt Q8WWI5)
SLC35E4 [2] = target: T3, SLC35E4; assay: Uptake ratio screen, SLC35E4-overexpressing HEK293 over empty vector cells; assay type: cell-based; set-up: by amplifying the entire gene-of-interest within the HEK293 genome via a long-range PCR; conditions: 2.5 μM, 2 min
Procedure: as §1, §2
The intracellular drug concentrations after transport experiments were analyzed by high-performance liquid chromatography coupled to tandem mass spectrometry analysis. The HPLC consisted of a Shimadzu Nexera HPLC System with a SIL-30AC autosampler, a LC-30AD pump, a CTO-20AC column oven, and a CBM-20A controller (Shimadzu). The reverse-phase chromatography of compounds was accomplished with a Brownlee SPP RP-Amide column with 4.6 × 100 mm inner dimensions, a particle size of 2.7 μm, and a preceding Phenomenex C-18 guard column. […] After separation, the detection of substances was performed with an API 4000 tandem mass spectrometer (AB SCIEX, https://sciex.com/support/software-support/software-downloads), followed by quantification of results with the Analyst software (AB SCIEX, version 1.6.2). […]
as §4

Sequence of SLC35E1 (Q96K37 whole entry): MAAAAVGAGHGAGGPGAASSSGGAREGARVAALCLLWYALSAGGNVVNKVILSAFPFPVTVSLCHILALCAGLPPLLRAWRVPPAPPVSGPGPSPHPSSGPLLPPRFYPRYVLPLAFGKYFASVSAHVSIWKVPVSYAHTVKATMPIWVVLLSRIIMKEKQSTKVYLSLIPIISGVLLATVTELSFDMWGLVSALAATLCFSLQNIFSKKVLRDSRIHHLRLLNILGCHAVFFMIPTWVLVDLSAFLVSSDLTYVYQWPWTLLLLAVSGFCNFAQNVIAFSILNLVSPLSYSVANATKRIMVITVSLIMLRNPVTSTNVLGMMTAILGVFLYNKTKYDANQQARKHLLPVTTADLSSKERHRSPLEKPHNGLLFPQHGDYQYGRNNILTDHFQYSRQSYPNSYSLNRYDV
Sequence of SLC44A1 (Q8WWI5 whole entry): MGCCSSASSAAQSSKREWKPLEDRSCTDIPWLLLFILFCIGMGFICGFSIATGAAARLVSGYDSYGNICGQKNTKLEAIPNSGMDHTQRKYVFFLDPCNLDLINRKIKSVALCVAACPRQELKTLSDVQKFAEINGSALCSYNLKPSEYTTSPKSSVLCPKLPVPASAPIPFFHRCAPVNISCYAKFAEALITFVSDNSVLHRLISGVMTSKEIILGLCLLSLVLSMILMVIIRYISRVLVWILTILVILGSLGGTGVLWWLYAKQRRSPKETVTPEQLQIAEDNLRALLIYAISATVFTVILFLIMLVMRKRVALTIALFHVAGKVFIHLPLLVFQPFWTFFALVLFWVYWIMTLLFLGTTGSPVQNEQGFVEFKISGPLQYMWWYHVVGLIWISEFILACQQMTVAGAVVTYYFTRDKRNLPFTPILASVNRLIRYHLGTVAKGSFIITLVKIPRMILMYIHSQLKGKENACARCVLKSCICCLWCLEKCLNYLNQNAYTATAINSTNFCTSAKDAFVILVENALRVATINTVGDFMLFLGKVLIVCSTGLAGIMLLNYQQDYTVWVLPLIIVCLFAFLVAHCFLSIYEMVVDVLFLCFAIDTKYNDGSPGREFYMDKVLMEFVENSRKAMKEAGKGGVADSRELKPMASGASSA

In the case of `C[N+](C)(C)CCO` [Choline], the “Uptake by SLC35F4 (in words)” value (SLC35F4) is reported as “enhanced cell uptake”, the “Clint (±SEM)” value (SLC35E1) is reported as 0.95 (±0.57) μl × mg protein^-1 × min^-1 and the “Uptake by SLC35F5 (in words)” value (SLC35F5) is reported as “highest uptake rates”. For the same molecule, the Km (SLC5A7) was 2 µM, the “Clint (±SEM)” value (SLC35E4 [1]) was 0.17 (±0.36) μl × mg protein^-1 × min^-1 and the “Clint (±SEM)” value (SLC44A1) was 2.08 (±1.79) μl × mg protein^-1 × min^-1. The “Uptake by SLC35E4 (in words)” value (SLC35E4 [2]) was “moderate influx transport activity”.
